Experimental data reported in patent US20260263374A1, “COMPOSITIONS OF NANOPARTICLES FOR TREATMENT OF NEUROPATHIC PAIN” (NANOBIOTIX S.A., priority 2022, published 2026).

How the values were obtained:
Type in all cases: in vivo, Sprague-Dawley rats
[1] = system: oxaliplatin-induced mechanical allodynia; test: CIPN model (Example 5): mechanical allodynia, paw withdrawal threshold with von Frey filaments after oxaliplatin; details: rat, oxaliplatin 10 mg/kg i.p.; 30 mg/kg p.o. each day of von Frey testing, tested 2 hr post dose
Procedure: The aim of this study was to investigate the effect of a single intraplantar treatment with Nanoparticles from Example 1 (NP1B) at the dose of 11 g/L, Nanoparticles from Example 2 (NP2B) at 53 g/L, Nanoparticles from Example 3 (NP20B) at 57 g/L, and Nanoparticles from Example 4 (NP20A) at 59 g/L, each in 20 μL of injection volume, on the mechanical allodynia (as assessed using von Frey) that occurs following systemic administration of oxaliplatin in the rat.
Experimental subjects: Seventy-two (72) adult male Sprague-Dawley rats were used for this study. […]
Static mechanical (tactile) allodynia evaluation: Measurement of paw withdrawal threshold (PWT) was achieved using calibrated (force; g) von-Frey monofilaments (Touch-Test Sensory Evaluator; Scientific Marketing Associates) applied to the plantar surface of the hind paw. Withdrawal threshold was determined by increasing and decreasing stimulus intensity and estimated using Dixon's up-down method. […]
Baseline readings for latency to withdrawal (sec) were assessed on three consecutive days (Day −3, Day −2 and Day −1). […]
Mechanical allodynia was subsequently re-assessed 2-3 times per week following injection, out to D26 post-oxaliplatin. […]

[2] = system: oxaliplatin-induced mechanical allodynia; test: CIPN model (Example 6): dose effect, paw withdrawal threshold with von Frey filaments, left (treated) vs right (vehicle) paw; details: 30 mg/kg p.o. each day of von Frey testing; on any of the test days
Source text: Animals were allowed to recover from transportation for at least one week before commencing experiments.
Data is presented as mean±SEM.

[3] = system: STZ-induced mechanical allodynia; test: STZ-induced diabetic neuropathic pain study (Example 7): paw withdrawal threshold with von Frey filaments; details: 30 mg/kg p.o. 2 hr prior to each von Frey test

## CC(C)C[C@H](CN)CC(=O)O [Pregabalin]
[1]
  PWT, allodynic response (positive control): rescued the allodynic response and recovered the PWT to the healthy baseline levels
[2]
  PWT levels (both paws) compared to ‘Vehicle/Vehicle’ group (not neuropathic): not significantly different from the ‘Vehicle/Vehicle’ group
[3]
  PWT levels compared to ‘STZ/Vehicle’ group: significantly different from the ‘STZ/Vehicle’ group on all days tested
